Results taken from PMC9123294, “Role of LL-37 in thrombotic complications in patients with COVID-19” (Cellular and Molecular Life Sciences: CMLS, 2022).

Tests used:
[1] = target: Human alpha thrombin (Homo sapiens, UniProt P00734); test: biochemical
Experimental: SPR analysis was performed as described previously, with some modifications. Briefly, thrombin and FXa were immobilized on the activated sensor chip CM-5 by amine coupling. […] The equilibrium dissociation constant (KD) was calculated using the Langmuir model with Biacore evaluation software provided by the manufacturer.

[2] = target: T1, Human factor Xa (human, UniProt P00742 41-179; P00742 235-488); test: SPR; thrombin and FXa immobilised on a CM-5 sensor chip by amine coupling; LL-37 or Cramp flowed in HBS-EP+ running buffer at 30 ul/min; BIAcore 3000; KD from the Langmuir model; conditions: both partners purified
T1 construct: also called FXa; source: bought: Enzyme Research Laboratories (HFXa 1011)
T1 sequence (P00742 41-179, chain 1 of 2): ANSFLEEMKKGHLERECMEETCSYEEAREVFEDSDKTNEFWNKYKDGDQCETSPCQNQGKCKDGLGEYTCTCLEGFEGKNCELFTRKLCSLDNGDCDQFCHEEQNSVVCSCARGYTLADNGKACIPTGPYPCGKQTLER
T1 sequence (P00742 235-488, chain 2 of 2): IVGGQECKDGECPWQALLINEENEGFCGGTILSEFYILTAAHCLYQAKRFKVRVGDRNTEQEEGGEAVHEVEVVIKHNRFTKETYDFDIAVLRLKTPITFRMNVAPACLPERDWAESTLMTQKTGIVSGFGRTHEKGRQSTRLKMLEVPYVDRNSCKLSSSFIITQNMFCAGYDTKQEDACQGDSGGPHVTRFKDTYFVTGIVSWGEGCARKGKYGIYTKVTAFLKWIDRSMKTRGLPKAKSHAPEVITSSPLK

CC[C@H](C)[C@H](NC(=O)[C@H](CCCCN)NC(=O)[C@H](CCC(=O)O)NC(=O)[C@H](CCCCN)NC(=O)[C@H](CO)NC(=O)[C@H](CCCCN)NC(=O)[C@H](CCCNC(=N)N)NC(=O)[C@H](Cc1ccccc1)NC(=O)[C@H](Cc1ccccc1)NC(=O)[C@H](CC(=O)O)NC(=O)CNC(=O)[C@H](CC(C)C)NC(=O)[C@@H](N)CC(C)C)C(=O)NCC(=O)N[C@@H](CCCCN)C(=O)N[C@@H](CCC(=O)O)C(=O)N[C@@H](Cc1ccccc1)C(=O)N[C@@H](CCCCN)C(=O)N[C@@H](CCCNC(=N)N)C(=O)N[C@H](C(=O)N[C@H](C(=O)N[C@@H](CCC(N)=O)C(=O)N[C@@H](CCCNC(=N)N)C(=O)N[C@H](C(=O)N[C@@H](CCCCN)C(=O)N[C@@H](CC(=O)O)C(=O)N[C@@H](Cc1ccccc1)C(=O)N[C@@H](CC(C)C)C(=O)N[C@@H](CCCNC(=N)N)C(=O)N[C@@H](CC(N)=O)C(=O)N[C@@H](CC(C)C)C(=O)N[C@H](C(=O)N1CCC[C@H]1C(=O)N[C@@H](CCCNC(=N)N)C(=O)N[C@H](C(=O)N[C@@H](CCC(=O)O)C(=O)N[C@@H](CO)C(=O)O)[C@@H](C)O)C(C)C)[C@@H](C)CC)C(C)C)[C@@H](C)CC [LL-37]
Kd [1]: 2.64 µM

B1: Cramp (peptide)
peptide: GLLRKGGEKIGEKLKKIGQKIKNFFQKLVPQPE
notes: also called LL-37 homolog from Mus musculus; cathelicidin peptide; source: synthetic peptide (GL Biochem, Shanghai; purity > 98%)
Kd [2]: 317 µM
